In the Deep4Chem optical property database one finds photoluminescence quantum yield data, which are given here for 43 compounds.

The data set in a line: photoluminescence quantum yield (fraction); solvent given as SMILES.

The structures appear in SMILES notation. “And” between values parts separate entries of the source, which are not always exact repeats. Equal entries are not always repeated.

Turning to `C#CCNC1=C2C=CC=[N+]2[B-](F)(F)n2cccc21`, the photoluminescence quantum yield runs as follows: (in C1CCCCC1) 0.93 and 0.999; (in CC(C)=O) 0.86; (in CCCCO) 0.79; (in CCCO) 0.741; (in CCO) 0.66 and 0.6; (in CCOC(C)=O) 0.94. For the same compound, the photoluminescence quantum yield came out at 0.442 (in CN(C)C=O); 0.52 (in CO); 0.278 (in CS(C)=O); 0.92 (in Cc1ccccc1); 0.829 (in ClC(Cl)Cl); 0.88 (in OCC(F)(F)F). The same compound displayed a photoluminescence quantum yield (in c1ccccc1) of 0.924.

On to `O=C(c1ccc(N(c2ccccc2)c2ccccc2)cc1)[C@H]1[C@H](c2ccc(F)cc2)C[C@](O)(c2ccccn2)C[C@]1(O)c1ccccn1`, for which the photoluminescence quantum yield is, setting by setting: (in C1CCOC1) 0.4; (in CC#N) 0.02; (in CCO) 0.01; (in CCOC(C)=O) 0.34; (in CN(C)C=O) 0.02; (in ClCCl) 0.21. Further, under “in c1ccccc1”, the photoluminescence quantum yield stood at 0.74.

Consider `CNc1ccc2c(c1)-c1ccccc1C2=O`, for which the photoluminescence quantum yield turned out to be 0.045 (in C1CCCCC1), 0.064 (in CC#N), 0.0065 (in CCO) and 0.19 (in c1ccccc1).

Where the note is “in O”, `CC[n+]1nc2cc3c4c(c2c2ccccc21)CCCN4CCC3` returned a photoluminescence quantum yield of 0.25.

`CN(C)c1ccc(/C=C/c2ccc(-c3cc(-c4ccccn4)nc(-c4ccccn4)c3)cc2)cc1`: the photoluminescence quantum yield came to 0.54 (in C1CCOC1); 0.48 (in C1COCCO1); 0.41 (in CC#N); 0.24 (in CCO); 0.62 (in ClCCl).

As to `N#CC(C#N)=Cc1ccc(-c2ccc(N(c3ccccc3)c3ccccc3)cc2)cc1`, under “in ClC(Cl)Cl”, the photoluminescence quantum yield amounted to 0.19.

`CC1=C(c2ccccc2)C(C)=[N+]2C1=C(c1c(-c3ccccn3)nc3ccccn13)c1c(C)cc(C)n1[B-]2(F)F` had a photoluminescence quantum yield (in ClCCl) of 0.739.

Take `Nc1cccc2c1-c1ccccc1C2=O`: the photoluminescence quantum yield is, setting by setting: (in C1CCCCC1) 0.035; (in CC#N) 0.012; (in CCO) 0.00024; (in c1ccccc1) 0.074.

In the case of `CCCCc1ccc(-n2c3c4cc(F)ccc4nc(-c4ccc(OC)cc4)c3c3c2c2c(-c4ccc(OC)cc4)nc4ccc(F)cc4c2n3-c2ccc(CCCC)cc2)cc1`, the photoluminescence quantum yield (in ClC(Cl)Cl) came to 0.19.

As to `COc1ccc(-c2c3ccccc3c3n2[B-](F)(F)[N+]2=Cc4c5ccccc5c(-c5ccc(OC)cc5)n4[B-](F)(F)[N+]2=C3)cc1`, the photoluminescence quantum yield runs as follows: (in CC#N) 0.22; (in CCCCCC) 0.32; (in CN(C)C=O) 0.23; (in Cc1ccccc1) 0.31; (in ClCCl) 0.31.

For the compound `C(#Cc1ccc(C#Cc2ccccc2)cc1)c1ccccc1`, under “in ClC(Cl)Cl”, the photoluminescence quantum yield stood at 0.5.

With `CCCCCCc1ccc(-n2c3c4cccc(OC)c4nnc3c3c2c2nnc4c(OC)cccc4c2n3-c2ccc(CCCCCC)cc2)cc1`, the photoluminescence quantum yield (in Cc1ccccc1) was 0.

Turning to `C[N+]1=C(/C=C/C2=C3Oc4c(cc5c6c4CCCN6CCC5)C(c4ccccc4C(=O)O)=C3CCC2)C(C)(C)c2ccccc21`, the photoluminescence quantum yield is, setting by setting: (in CC#N) 0.25; (in CCO) 0.34; (in CO) 0.35; (in ClC(Cl)Cl) 0.51.

Consider `Cc1ccc(-c2[nH]c(=O)n3c2-c2ccccc2C3=O)c(O)c1`, for which the photoluminescence quantum yield reads like this: (in CC#N) 0.51; (in CO) 0.14; (in ClCCl) 0.63.

`Cc1cc(-c2ccc(C(C)(C)C)cc2)cc(C)[o+]1`: the photoluminescence quantum yield reads like this: (in CC#N) 0.36; (in ClCCl) 0.25.

`CC1=CC(C)=[N+]2C1=C(c1ccc(N(C)C)cc1)c1c(C)cc(/C=C/c3ccc(N(C)C)cc3)n1[B-]2(F)F`: the photoluminescence quantum yield (in CCOCC) came to 0.78.

For the setting “in C1COCCO1”, `COc1ccc(C2=C/C(=C\c3ccccc3)C(=O)O2)cc1OC` had a photoluminescence quantum yield of 0.004.

For the setting “in ClCCl”, `CCCCCCN1C(=O)c2cccc3c(-c4ccc(-c5cc(-c6ccccc6)nn5-c5ccccc5)s4)ccc(c23)C1=O` yielded a photoluminescence quantum yield of 0.16.

The compound `COc1cc(C)c(-c2cc(-c3c(C)cc(OC)cc3C)c3ccc4c(-c5c(C)cc(OC)cc5C)cc(-c5c(C)cc(OC)cc5C)c5ccc2c3c54)c(C)c1` gave a photoluminescence quantum yield (in ClCCl) of 0.38.

`CN(C)c1ccc2c(-c3cc(C(=O)[O-])ccc3C(=O)[O-])c3ccc(=[N+](C)C)cc-3oc2c1` gave a photoluminescence quantum yield (in CCO) of 0.59 and a photoluminescence quantum yield (in O) of 0.45.

Turning to `CC[N+]1(CC)CN2C(=N1)C(C(=O)O)=Cc1c(OC)ccc(OC)c12`, the photoluminescence quantum yield (in O) is 0.018.

`Clc1ccc2nc3cc4ccccc4cc3c(-c3ccccc3)c2c1` displayed a photoluminescence quantum yield (in ClCCl) of 0.38.

In the case of `F[B-]1(F)n2c(ccc2-c2ccccc2)C(c2ccc(I)cc2)=C2C=CC(c3ccccc3)=[N+]21`, for the setting “in ClC(Cl)Cl”, the photoluminescence quantum yield stood at 0.2.

Take `COC(=O)C(N)Cc1ccc(O[Si]2(Oc3ccc(CC(N)C(=O)OC)cc3)n3c4c5ccccc5c3/N=C3N=C(/N=c5/c6ccccc6/c(n52)=N/C2=NC(=N\4)/c4ccccc42)c2ccccc2\3)cc1` (stereo unspecified): the photoluminescence quantum yield (in CN(C)C=O) worked out at 0.12.

Take `c1ccc(-c2nc(-c3ccccc3)nc(-c3cc(-n4c5ccccc5c5ncccc54)c(-n4c5ccccc5c5ncccc54)c(-n4c5ccccc5c5ncccc54)c3)n2)cc1`: the photoluminescence quantum yield (in O=P(c1ccccc1)(c1ccccc1)c1ccc2oc3ccc(P(=O)(c4ccccc4)c4ccccc4)cc3c2c1) was determined as 0.54.

For `CC1(C)c2ccccc2N(c2ccc(-c3nnc(-c4ccc(N5c6ccccc6C(C)(C)c6ccccc65)cc4)o3)cc2)c2ccccc21`, under “in O=P(c1ccccc1)(c1ccccc1)c1ccccc1Oc1ccccc1P(=O)(c1ccccc1)c1ccccc1”, the photoluminescence quantum yield was 0.62.

In turn, `Cc1cc2nc3[nH]c(=O)[nH]c(=O)c3nc2cc1C` showed a photoluminescence quantum yield (in CC#N) of 0.028.

`O=c1cc(-c2nc3ccccn3c2NC2CCCCC2)occ1OCc1ccccc1` displayed a photoluminescence quantum yield (in ClCCl) of 0.209.

Regarding `Cc1ccc(-c2ccc(/C=C/c3cccn3C)cn2)nc1`, the photoluminescence quantum yield came out at 0.25 (in C1COCCO1); 0.087 (in CC#N); 0.36 (in CCCCCC); 0.2 (in CCO); 0.19 (in CN(C)C=O); 0.18 (in CO). Moreover, the photoluminescence quantum yield reads like this: (in CS(C)=O) 0.19; (in Cc1ccccc1) 0.25; (in ClC(Cl)Cl) 0.25; (in c1ccccc1) 0.25.

`CCn1c2cc(C(C)(C)C)ccc2c2c3nsnc3c3c4ccc(C(C)(C)C)cc4n(CC)c3c21` returned a photoluminescence quantum yield (in CN(C)C=O) of 0.07, a photoluminescence quantum yield (in Cc1ccccc1) of 0.08 and a photoluminescence quantum yield (in ClCCl) of 0.07.

Take `CCC1=C(CC)C(C)=[N+]2C1=Cc1c(C)c3cc4c(cc3n1[B-]2(F)F)=[N+]1C(=Cc2c(CC)c(CC)c(C)n2[B-]1(F)F)C=4C`: the photoluminescence quantum yield (in ClC(Cl)Cl) is 0.72.

For `CCCCn1c2ccc(C#N)cc2c2cc(C#N)ccc21`, the photoluminescence quantum yield (in ClCCl) was 0.1.

As to `CCCC1(CCC)c2cc(-c3cccc(Cc4ccc(/C=C/c5ccccc5)cc4)c3)ccc2-c2ccc(-c3cccc(Cc4ccc(/C=C/c5ccccc5)cc4)c3)cc21`, where the note is “in C1CCCCC1”, the photoluminescence quantum yield worked out at 0.08.

`CCCCCCc1cc2c3c(c1)c(=C1c4ccccc4S(=O)(=O)c4ccccc41)c1cc(CCCCCC)cc4c1N3c1c(cc(CCCCCC)cc1c4=C1c3ccccc3S(=O)(=O)c3ccccc31)c2=C1c2ccccc2S(=O)(=O)c2ccccc21` yielded a photoluminescence quantum yield (in ClCCl) of 0.47.

The compound `Nc1nc2c([nH]c(=O)n2[C@H]2C[C@H](O)[C@@H](CO)O2)c(=O)[nH]1` displayed a photoluminescence quantum yield (in O) of 0.00013.

Regarding `CN(C)c1ccc(/C=C/c2ncc3ccccc3n2)cc1`, the photoluminescence quantum yield stood at 0.06 (in CC#N) and 0.21 (in ClCCl).

Under “in C1CCOC1”, `Clc1cnc2nn3ccccc3c2n1` displayed a photoluminescence quantum yield of 0.38.

Take `O=C1/C(=C/C=C/c2cc3c4c(c2)CCCN4CCC3)CC/C1=C\C=C\c1cc2c3c(c1)CCCN3CCC2`: the photoluminescence quantum yield runs as follows: (in CC#N) 0.037; (in CC(C)=O) 0.092; (in CC(C)O) 0.07; (in CCCCCC) 0.13; (in CCCCO) 0.061; (in CCCO) 0.042. The photoluminescence quantum yield runs as follows: (in CCO) 0.026; (in CCOC(C)=O) 0.1; (in CCOCC) 0.26; (in CN(C)C=O) 0.053; (in CO) 0.026; (in CS(C)=O) 0.062. Further, the photoluminescence quantum yield runs as follows: (in Cc1ccccc1) 0.3; (in ClCCl) 0.15; (in OCC(F)(F)F) 0.008; (in S=C=S) 0.078; (in c1ccccc1) 0.3; (in c1ccncc1) 0.17.

Consider `C[Si](C)(C)c1ccc2ccc3cccc4ccc1c2c34`, for which the photoluminescence quantum yield stood at 0.23 (in CCCCCC), 0.22 (in CO) and 0.36 (in ClCCl).

Turning to `CN(C)c1ccc2nc(-c3ccccc3)c(=O)oc2c1`, for the setting “in c1ccccc1”, the photoluminescence quantum yield stood at 0.526.

`CC1=CC(/C=C/c2ccc(C)cc2)=[N+]2C1=C(c1ccccc1)c1c(C)cc(/C=C/c3ccc(C)cc3)n1[B-]2(F)F`: the photoluminescence quantum yield (in CC1CCCO1) was 0.75.

In the case of `Clc1nc(Nc2ccccc2)nc(Nc2ccc3cc4ccccc4cc3c2)n1`, the photoluminescence quantum yield (in C1COCCO1) came out at 0.42, the photoluminescence quantum yield (in CC#N) was determined as 0.18, the photoluminescence quantum yield (in CCCCOCCCC) stood at 0.35 and the photoluminescence quantum yield (in CCOC(C)=O) worked out at 0.23.

In the case of `CN(C)c1ccc(/C=C/c2cc(/C=C/c3ccc(N(C)C)cc3)nc(/C=C/c3ccc(C(F)(F)F)cc3)n2)cc1`, the photoluminescence quantum yield (in ClCCl) worked out at 0.72.
